These are literature values, as cited in article PMC6247064 (Cancer Science, 2018).

Converted amounts (≈) assume the structure as drawn.

For data set [1], the system named is Calu-6 xenograft. The settings on record: cited from earlier work.
Data set [2] concerns BRCA wild-type recurrent high-grade serous ovarian cancer. The settings on record: phase 2, 8 of 28 women, intention-to-treat population; cited from earlier work.

With `COc1cccc(OCCCN)c1-c1cc(Nc2cnc(C#N)cn2)n[nH]1` [Prexasertib], the “IC50 derived from the single-agent Calu-6 xenograft model” value in data set [1] (plasma concentration) is 0.0141 µg/mL (≈ 0.0386 µM). Moreover, in data set [1] (predicted from Calu-6 xenograft PK/pharmacodynamic model, monotherapy), the “Median AUC(0-72) predicted to achieve the maximal tumor response” value was 1896 ng·h/mL. Further, the Partial responses in data set [2] was 29%.
